According to publication PMC5136371, “Acetylcholinesterase and Cytotoxic Activity of Chemical Constituents of Clutia lanceolata Leaves and its Molecular Docking Study” (Natural Products and Bioprospecting, 2016):
Where two headings read alike, the source gives them in different places.

Columns and labels:
[1] = system: brine shrimp nauplii (Artemia salina); test: In vivo cytotoxicity, brine shrimp lethality bioassay; settings: 24 h incubation, 10-80 µg/mL, triplicate
Experimental: The in vivo cytotoxicity of compounds (1–4) isolated from the leaves of C. lanceolata was evaluated to brine shrimp nauplii using vincristine sulfate as standard (Fig. S1 †ESI). It is one of the most convenient methods to determine the cytotoxicity of any compound.
Brine shrimp lethality bioassay is commonly used in the bioassay for the bioactive compounds [44, 45]. The in vivo cytotoxicity assay was performed on brine shrimp nauplii (Artemia salina) in accordance with the Mayer method. The egg of brine shrimp were hatched in a tank filled with artificially prepared sea water (brine, 3.8 % NaCl) exposed to incandescent light. Air was supplied at the bottom of the tank with the help of air supplier fitted with tube to keep the shrimps in uniform motion. The assay was performed 24 h after hatching and no food supplement was given during the hatching and experimental periods. A test sample (5.0 mg) was dissolved in 1 mL DMSO to obtain stock solution of 5 mg/mL. Different concentrations of test samples were obtained from stock solution and placed in separate vials, and the volume of each vial was made up to 5 mL with brine to obtain the desired final concentrations (10, 20, 40, 60 and 80 µg/mL). The negative control was prepared in the same manner without the samples. Vincristine sulphate was used as a standard anti-cancer drug. Thirty brine shrimp nauplii were then placed in each vial. After 24 h of incubation, the vials were observed using a magnifying glass, and the number of survivors in each vial were counted and noted. The LD50 values were calculated using the plot of percentage of mortality and logarithm of concentration. All tests were performed in triplicate and expressed as mean.

[2] = Solubility and air stability of the isolated crystals; type: physicochemical; settings: for solubility in organic solvents: all common organic solvents; for stability in air: once isolated
human recombinant AChE = molecular target: T1, human recombinant AChE (Homo sapiens, UniProt P22303); test: biochemical
T1 construct: purchased Sigma-Aldrich
T1 sequence (P22303 32-614): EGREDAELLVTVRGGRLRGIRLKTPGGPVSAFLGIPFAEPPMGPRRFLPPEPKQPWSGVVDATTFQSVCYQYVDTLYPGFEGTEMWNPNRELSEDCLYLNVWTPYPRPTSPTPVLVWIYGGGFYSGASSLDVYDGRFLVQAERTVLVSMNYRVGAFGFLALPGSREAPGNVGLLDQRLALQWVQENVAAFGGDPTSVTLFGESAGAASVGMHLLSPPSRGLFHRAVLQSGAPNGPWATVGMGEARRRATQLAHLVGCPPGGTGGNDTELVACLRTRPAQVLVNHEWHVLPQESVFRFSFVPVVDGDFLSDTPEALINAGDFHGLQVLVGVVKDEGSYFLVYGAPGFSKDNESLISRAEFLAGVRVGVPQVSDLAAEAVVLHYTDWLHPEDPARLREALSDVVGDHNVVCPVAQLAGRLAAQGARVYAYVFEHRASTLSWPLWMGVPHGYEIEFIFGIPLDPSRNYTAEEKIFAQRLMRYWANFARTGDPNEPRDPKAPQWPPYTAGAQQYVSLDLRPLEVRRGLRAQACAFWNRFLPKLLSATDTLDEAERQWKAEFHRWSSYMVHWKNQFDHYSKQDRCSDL
Experimental: AChE stock solution was prepared by dissolving human recombinant AChE (EC: 3.1.1.7) lyophilized powder (Sigma-Aldrich) in 0.1 M phosphate buffer (pH = 8.0) containing Triton X-100 (0.1 %). […] Increasing concentrations of the tested inhibitor were added to the assay solution and pre-incubated for 5 min at 37 °C with the enzyme followed by the addition of the substrate. Initial rate assays were performed at 37 °C using a Jasco V-530 double beam Spectrophotometer. The absorbance value at 412 nm was recorded for 5 min and enzyme activity was calculated from the slope of the obtained linear trend. Assays were carried out with a blank containing all components except AChE to account for the non-enzymatic reaction. The reaction rates were compared and the percent inhibition due to the presence of tested inhibitors was calculated. […] Tacrine was used as a standard inhibitor.

For COc1cc(/C=C/C(=O)/C=C(O)/C=C/c2ccc(O)c(OC)c2)ccc1O [Compound 4, 5-hydroxy-1,7-bis(4-hydroxy-3-methoxyphenyl)hepta-1,4,6-trien-3-one], which LD50 value [1] is on record?
Its LD50 value is 11.66 ± 0.04 µg/mL.

And the LD50 value ([1]; listed as compound 4)?
Its LD50 value is 11.66 µg/mL.

What about the “solubility in organic solvents” value [2] of the same molecule?
The value was “soluble in all common organic solvents”.

And the stability in air [2]?
The stability in air was “air-stable”.

What about the solubility in water [2] of the same molecule?
The solubility in water was “insoluble in water”.

For Oc1ccc2ccccc2c1-c1c(O)ccc2ccccc12 [Compound 2, 2,2′-dihydroxy-1,1′-binaphthyl], which LD50 value [1] is on record?
The LD50 value was 17.78 ± 0.05 µg/mL.

And the LD50 value ([1]; listed as compound 2)?
The LD50 value was 17.78 µg/mL.

What about the “solubility in organic solvents” value [2] of the same molecule?
The value was “soluble in all common organic solvents”.

What about the stability in air [2] of the same molecule?
The stability in air was “air-stable”.

What about the solubility in water [2] of the same molecule?
The solubility in water was “insoluble in water”.

What about the IC50 (human recombinant AChE) of the same molecule?
The IC50 was 21.9 ± 0.05 µM.

For Cc1cc(O)c2c(c1)C(=O)c1cc(O)cc(O)c1C2=O [Compound 3, 1,3,8-trihydroxy-6-methylanthracene-9,10-dione], which LD50 value [1] is on record?
The LD50 value was 13.80 ± 0.03 µg/mL.

And the LD50 value ([1]; listed as compound 3)?
The LD50 value was 13.80 µg/mL.

And the IC50 (human recombinant AChE)?
Its IC50 is 14.2 ± 0.06 µM.

For Cc1c(C(=O)O)ccc(O)c1O [Compound 1, 3,4-dihydroxy-2-methylbenzoic acid], which LD50 value [1] is on record?
Its LD50 value is 23.40 ± 0.02 µg/mL.

And the LD50 value ([1]; listed as compound 1)?
The LD50 value was 23.40 µg/mL.

And the IC50 (human recombinant AChE; human recombinant AChE, pH 8.0, 37 °C, substrate acetylthiocholine iodide 550 µM, triplicate, read-out: IC50 ± SEM for hAChE inhibition)?
Its IC50 is 23.7 ± 0.02 µM.

With CC[C@]1(O)C[C@H]2CN(CCc3c([nH]c4ccccc34)[C@@](C(=O)OC)(c3cc4c(cc3OC)N(C=O)[C@H]3[C@@](O)(C(=O)OC)[C@H](OC(C)=O)[C@]5(CC)C=CCN6CC[C@]43[C@@H]65)C2)C1 [Vincristine sulphate, reference compound] as the molecule, how does the LD50 value [1] read?
The LD50 value was 8.84 ± 0.01 µg/mL.

And the LD50 value ([1]; listed as vincristine sulfate)?
Its LD50 value is 8.84 µg/mL.
